According to patent US12478643B2, “Compositions and methods for the prevention or treatment of rheumatoid arthritis” (Rhode Island Hospital, priority 2021, dated 2025):

Key:
DBA/1 mice = assay: 3AC i.p. daily for 7 days in DBA/1 mice: Western blot and flow cytometry; type: in vivo, mouse
Description: Mice. All animals were maintained in pathogen-free conditions and all animal procedures followed protocols approved by the Institutional Animal Care and Use Committee (IACUC) of Rhode Island Hospital. The SHIP-1 knockout (KO) mice (Inpp5d<tm1Dmt>/J, Stock #003534) on a mixed genetic background (129/C57BL/6) were purchased from the Jackson Laboratory, Bar Harbor, ME, and backcrossed with C57BL/6 mice (Stock #000664, the Jackson Laboratory) for 5 generations. Heterozygous (SHIP-1^+/−) mice were intercrossed to obtain homozygous progeny (SHIP-1^−/−). Wild-type (WT) littermates (SHIP-1^+/+) of same age as SHIP1 KO mice were used as controls. DBA/1J mice (Stock #000670) were also purchased from the Jackson Laboratory.
Chemicals and reagents. Specific SHIP-1 inhibitor 3AC was purchased from Echelon Biosciences (Salt Lake, UT) and suspended in 0.3% Klucel (Sigma-Aldrich, St. Louis, MO) solution. The 3AC suspension was stirred by sonication and sterile filtered before injection. The 0.3% Klucel solution was used as a vehicle control.
Immunoblotting. Splenocytes were isolated from C57BL/6 WT and SHIP1 KO mice, and DBA/1 mice with or without 3AC treatment. The cells were then lysed with RIPA buffer containing Halt™ Protease and Phosphatase Inhibitor Cocktail (Thermo Scientific, Rockford, IL). Total lysates (30 μg/sample) were loaded on an SDS-PAGE gel and transferred onto an Immuno-Blot PVDF membrane (Bio-Rad, Hercules, CA). The membranes were first blocked and then probed with antibodies in TBS (20 mM Tris and 150 mM NaCl) containing 0.1% Tween-20 and 5% skim milk. Antibodies against SHIP-1 (P1C1) (sc-8425) and β-Actin (2A3) were purchased from Santa Cruz Biotechnology (Dallas, TX). Blots were developed by using a goat anti-mouse IgG antibody conjugated IRDye 800CW and imaged with an Odyssey imager (LI-COR, Lincoln, NE).
Flow cytometry analysis. Peripheral blood (PB) samples were collected from the retro-orbital sinus of mice on the indicated days. Bone marrow (BM) of femurs and tibiae and spleens were isolated from sacrificed mice. Following treatment with red blood cell lysing buffer (Sigma-Aldrich) and filtration through a nylon mesh, peripheral blood mononuclear cells (PBMCs), splenocytes, and whole BM cells were isolated and suspended in phosphate-buffered saline (PBS) containing 2% FBS. These cells were labeled with fluorophore-conjugated antibodies and subjected to flow cytometry. All antibodies used in flow cytometry were purchased from BioLegend (San Diego, CA): Alexa Fluor 488 anti-mouse CD11b, APC anti-mouse Gr-1, PE anti-mouse CD3e, APC/Cy7 anti-mouse B220, Alexa Flour 488 anti-mouse CD4, and APC anti-mouse CD25. 4′,6-Diamidino-2-Phenylindole (DAPI) was used to exclude DAPI+ dead cells during flow cytometry analysis. Data were acquired using LSR II flow cytometer (BD Biosciences) and analyzed with FlowJo software (FlowJo, Ashland, OR).
Statistical analysis. Data are shown as the mean values±standard error of the mean (SEM). The significance of difference was calculated with unpaired two-tailed Student's t-test or one-way ANOVA when comparing more than 2 groups by using GraphPad Prism (GraphPad Software, Inc., La Jolla, CA). P values less than 0.05 were considered to be statistically significant.

[1] = test system: collagen-induced arthritis (CIA) in DBA/1 mice; assay: Collagen-induced arthritis (CIA) prevention model, 3AC pre-treatment; type: in vivo, mouse
[2] = test system: collagen-induced arthritis (CIA) in DBA/1 mice; assay: Collagen-induced arthritis (CIA) intervention model, 3AC after second immunization; type: in vivo, mouse
[3] = test system: CIA in C57BL/6 WT and SHIP1 KO mice; assay: CIA in C57BL/6 WT and SHIP1 KO mice; type: in vivo, mouse
SHIP1 = target: T1, SHIP1 (Homo sapiens, UniProt Q92835); details: read-out: IC50 SHIP-1; cited from earlier work
T1 sequence (Q92835 1-1189): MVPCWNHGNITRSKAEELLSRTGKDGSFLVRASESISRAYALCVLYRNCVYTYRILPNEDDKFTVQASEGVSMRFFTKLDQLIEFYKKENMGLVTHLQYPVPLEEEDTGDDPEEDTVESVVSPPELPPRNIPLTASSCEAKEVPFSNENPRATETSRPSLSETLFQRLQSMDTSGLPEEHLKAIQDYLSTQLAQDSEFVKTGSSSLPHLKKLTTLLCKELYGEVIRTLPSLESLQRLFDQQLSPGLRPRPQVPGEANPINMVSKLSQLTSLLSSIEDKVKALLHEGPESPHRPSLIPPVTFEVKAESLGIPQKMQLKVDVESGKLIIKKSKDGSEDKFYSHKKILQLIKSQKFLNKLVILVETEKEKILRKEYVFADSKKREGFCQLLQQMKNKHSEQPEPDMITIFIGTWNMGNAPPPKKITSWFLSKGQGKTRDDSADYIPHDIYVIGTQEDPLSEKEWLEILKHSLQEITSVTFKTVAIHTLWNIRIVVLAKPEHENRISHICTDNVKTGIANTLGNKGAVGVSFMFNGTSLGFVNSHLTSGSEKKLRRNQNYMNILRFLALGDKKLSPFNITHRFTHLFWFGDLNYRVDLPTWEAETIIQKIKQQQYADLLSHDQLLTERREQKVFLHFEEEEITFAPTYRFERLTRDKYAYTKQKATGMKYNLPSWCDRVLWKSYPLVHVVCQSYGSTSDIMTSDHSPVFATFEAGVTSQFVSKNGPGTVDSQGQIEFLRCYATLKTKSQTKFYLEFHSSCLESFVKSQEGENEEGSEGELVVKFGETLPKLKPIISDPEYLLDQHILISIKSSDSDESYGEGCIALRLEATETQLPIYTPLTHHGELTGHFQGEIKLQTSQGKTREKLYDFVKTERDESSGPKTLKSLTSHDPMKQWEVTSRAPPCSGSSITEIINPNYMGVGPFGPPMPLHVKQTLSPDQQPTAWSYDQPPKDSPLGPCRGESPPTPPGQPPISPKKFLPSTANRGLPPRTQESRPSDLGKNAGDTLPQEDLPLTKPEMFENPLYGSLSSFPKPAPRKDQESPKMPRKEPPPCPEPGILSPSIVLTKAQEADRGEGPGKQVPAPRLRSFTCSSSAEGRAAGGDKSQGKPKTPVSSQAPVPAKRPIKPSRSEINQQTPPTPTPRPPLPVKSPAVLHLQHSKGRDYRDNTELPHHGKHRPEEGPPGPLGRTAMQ

[4] = test system: wild-type (WT) C57BL/6 mice; details: cited from earlier work
SHIP-1 = details: temporal inhibition of SHIP-1; cited from earlier work
mice = details: as seen in SHIP-1 KO mice; cited from earlier work
[5] = test system: hematopoietic cancer cells; details: in vitro; cited from earlier work
[6] = test system: xenograft model of multiple myeloma; details: cited from earlier work
[7] = i.p. daily for 7 days, DBA/1 mice
[8] = 3AC daily for 7 days prior to CIA induction, vs vehicle
[9] = 3AC daily for 7 days starting on day 27

## CC(C)CCC[C@@H](C)[C@H]1CC[C@H]2[C@@H]3CC[C@H]4C[C@H](N)CC[C@]4(C)[C@H]3CC[C@]12C [Compound 3AC, 3α-Aminocholestane]
DBA/1 mice; [7]
  CD3+ T cells in PB: significant reduction
  CD11b+Gr-1+ MDSCs in BM: increase
  CD11b+Gr-1+ MDSCs in peripheral blood (PB): increase
  CD11b+Gr-1+ MDSCs in spleen (SP): increase
  SHIP-1 protein depletion in splenocytes (Western blot): comparable to that in SHIP1 KO mice
DBA/1 mice; vs vehicle control mice
  Tregs in SP: significantly elevated level
DBA/1 mice; vs vehicle treated control mice
  frequency of CD4+CD25+ Tregs in PB: remained unchanged
[1]; [8]
  CIA onset: significant delay
  severity of CIA (clinical score): significant reduction
[1]; X-ray at day 63
  misalignment, bone erosion and destruction of joint cartilage (radiographic assessment): nearly absent
[1]; after first immunization, 3AC pre-treated DBA/1 mice
  time at which swelling and redness of limbs started to appear: 30 to 40 days
[1]; day 42
  swollen and reddish front paws (photographic assessment): much less so
[1]; following 3AC injection
  Tregs in the spleen: higher number
[1]; till day 21, transient
  CD3+ T cells in peripheral blood: decreased
  MDSCs in peripheral blood: significantly increased
[1]; wrist joint of front paws
  bone erosion (Toluidine Blue): reduced bone erosion
  cartilage damage (Safranin O): reduced cartilage damage
  inflammatory cell infiltration in the arthritic joint (H&E): reduced inflammatory cell infiltration
[2]; [9]
  CIA incidence: significantly reduced
  CIA severity (clinical score): significantly reduced
[2]; day 34
  number of total T cell in peripheral blood: Significantly and transiently decreasing
[2]; mouse, in vivo
  number of Tregs in peripheral blood: unchanged
[2]; onset and endpoint of the experiment, vs control
  number of Tregs in the spleen: Comparable number
[2]; vs vehicle-treated mice, day 34
  number of MDSCs in peripheral blood: Significantly but transiently increasing
[3]; SHIP1 KO mice treated with 3AC (data not shown)
  incidence and severity of CIA in SHIP1 KO mice: did not improve
[3]; WT mice with 3AC pre-treatment
  CIA development in C57BL/6 WT mice: did not develop CIA
SHIP1
  IC50: ~2500 nM
[4]; WT C57BL/6 mice
  myeloid immunoregulatory cell compartment: significantly expand
[4]; mouse models
  ability of the immune system to prime allogeneic T cell responses: impairs
SHIP-1
  SHIP-1 protein stability in cells: reduces protein stability and induces protein degradation
mice
  pulmonary myeloid infiltration: did not cause
[5]
  apoptosis of hematopoietic cancer cells: increases apoptosis
[6]
  inflammation of peripheral tissues: without association with severe inflammation of peripheral tissues
  tumor cell growth: reduces tumor cell growth
